Tests used:
[1] = tested on: actinic keratosis lesions; assay: Preliminary study: 5% ibuprofen gel vs 3% diclofenac gel in patients with actinic keratosis; settings: for Development of new lesions during treatment: 90 days of treatment; for Average number of lesions at the start of the study: baseline; for Average number of lesions (total): all areas; for Severity of the lesions (BSI score): during the 90 days of treatment; for Investigator global improvement index (IGII): scale -2 to +4
Protocol: The study was performed according to the relevant criteria and was approved by the ethics commission of the dermatological society of Slovakia.
(§1) The application frequency was twice a day. The success of the treatment was evaluated after 30, 60 and 90 days.
(§2) When included in the study, the severity of the lesions was evaluated according to the so-called BSI (baseline severity index) score from 0 to 3. Patients having a BSI score of 1 and 2 were exclusively included in the study.
BSI score (baseline severity index score 1-3) • 0=no actinic keratosis (AK) visible • 1=clearly visible lesion • 2=many small, moderately thick lesions or a few large scaly lesions visible • 3=many thick hypertrophic lesions that are clearly visible and palpable with clear bounds.
(§3) The main target parameters within the scope of effectiveness were the total number of lesions in the treatment area and the IGII (investigator global improvement index) score from −2 to +4. From round 1, the evaluations were always done in comparison with the preliminary round.
(§4) IGII (investigator global improvement index) • −2 significant worsening • −1 slight worsening • 0 unchanged • 1 slight improvement • 2 improvement • 3 significant improvement • 4 complete healing
The IGII was measured between each two rounds.

[2] = tested on: actinic keratosis lesions; assay: Second study: 10% ibuprofen gel vs 3% diclofenac gel in patients with actinic keratosis; settings: for Average number of lesions at the start of the study: baseline; for Average IGII at the end of the treatment time: all areas; for Average IGII at the end of the treatment time / Investigator global improvement index (IGII): scale -2 to +4
Protocol: as §1, §2, §3, §4
The design of the study was the same as that of the first study.

[3] = cited from earlier work
[4] = 5% ibuprofen gel or 3% diclofenac gel
[5] = Face, 90 days, 5% ibuprofen gel or 3% diclofenac gel twice a day
[6] = Face, 5% ibuprofen gel or 3% diclofenac gel
[7] = Forehead, 90 days, 5% ibuprofen gel or 3% diclofenac gel twice a day
[8] = Forehead, 5% ibuprofen gel or 3% diclofenac gel twice a day, 12 patients per group
[9] = Hands, 90 days, 5% ibuprofen gel or 3% diclofenac gel twice a day
[10] = Hands, 5% ibuprofen gel or 3% diclofenac gel
[11] = Scalp, 90 days, 5% ibuprofen gel or 3% diclofenac gel twice a day
[12] = Scalp, 5% ibuprofen gel or 3% diclofenac gel
[13] = after 90 days of treatment, 5% ibuprofen gel or 3% diclofenac gel twice a day
[14] = start of study, 5% ibuprofen gel or 3% diclofenac gel
[15] = Face, 90 days, 10% ibuprofen gel or 3% diclofenac gel
[16] = Face, 10% ibuprofen gel or 3% diclofenac gel
[17] = Forehead, 90 days, 10% ibuprofen gel or 3% diclofenac gel
[18] = Forehead, 10% ibuprofen gel or 3% diclofenac gel, 6 patients per group
[19] = Hands, 90 days, 10% ibuprofen gel or 3% diclofenac gel
[20] = Hands, 10% ibuprofen gel or 3% diclofenac gel
[21] = 90 days, 10% ibuprofen gel or 3% diclofenac gel
[22] = beginning of the treatment, 10% ibuprofen gel or 3% diclofenac gel
[23] = end of the 90 days of treatment, 10% ibuprofen gel or 3% diclofenac gel
[24] = Forehead, V0 (start of the study)

For `O=C(O)Cc1ccccc1Nc1c(Cl)cccc1Cl` [Diclofenac, diclofenac], the “Development of new lesions during treatment” value [1, 4] was “None of the patients developed new lesions”, the “Average number of lesions after 90 days of treatment” value (“Average number … of treatment” below) [1, 5] was 5.5 and the “Average number of lesions at the start of the study” value (shortened to “Average number … of the study”) [1, 6] was 7. The “Average number … of treatment” value [1, 7] was 5.3, the “Average number … of the study” value [1, 8] was 7.1 and the “Average number … of treatment” value [1, 9] was 17.1. The “Average number … of the study” value [1, 10] was 18.1, the “Average number … of treatment” value [1, 11] was 11.5 and the “Average number … of the study” value [1, 12] was 15.8. The “Average number of lesions (total)” value [1, 13] was 39.4, the “Average number of lesions (total)” value [1, 14] was 48 and the “Severity of the lesions (BSI score)” value [1, 4] was “remained virtually unchanged”. For the same molecule, the Undesirable side effects ([1]; during the study, topical 5% ibuprofen gel or 3% diclofenac gel twice a day, 90 days) was “No undesirable side effects”, the “Tolerability of the therapy” value ([1]; topical 5% ibuprofen gel or 3% diclofenac gel twice a day, 90 days) was “well tolerated” and the Tolerability ([2]; 10% ibuprofen gel or 3% diclofenac gel, 90 days topical) was “very good”. The “Average number … of treatment” value [2, 15] was 6.2, the “Average number … of the study” value [2, 16] was 12.3 and the “Average number … of treatment” value [2, 17] was 4.2. For the same molecule, the “Average number … of the study” value [2, 18] was 7.5, the “Average number … of treatment” value [2, 19] was 8.8 and the “Average number … of the study” value [2, 20] was 17. The “Average IGII at the end of the treatment time” value [2, 21] was 2.29, the “Total number of lesions” value [2, 22] was 36.8 and the “Total number of lesions” value [2, 23] was 19.2.

In the case of `CC(C)Cc1ccc(C(C)C(=O)O)cc1` (stereo not drawn) [Ibuprofen, ibuprofen], the “Development of new lesions during treatment” value [1, 4] is reported as “None of the patients developed new lesions”, the “Average number … of treatment” value [1, 5] is reported as 4.8 and the “Investigator global improvement index (IGII)” value ([1]; Face, V0 (start of the study)) is reported as 0. For the same molecule, the “Investigator global improvement index (IGII)” value ([1]; Face, V3 (after 90 days of treatment), 5% ibuprofen gel or 3% diclofenac gel) was 1.38, the “Average number … of the study” value [1, 6] was 5.7 and the “Average number … of treatment” value [1, 7] was 4. For the same molecule, the “Investigator global improvement index (IGII)” value [1, 24] was 0, the “Investigator global improvement index (IGII)” value ([1]; Forehead, V3 (after 90 days of treatment), 5% ibuprofen gel or 3% diclofenac gel) was 1.33 and the “Average number … of the study” value [1, 8] was 4.6. For the same molecule, the “Investigator global improvement index (IGII)” value ([1]; Hand, V0 (start of the study)) was 0, the “Investigator global improvement index (IGII)” value ([1]; Hand, V3 (after 90 days of treatment), 5% ibuprofen gel or 3% diclofenac gel) was 1 and the “Average number … of treatment” value [1, 9] was 16.9. For the same molecule, the “Average number … of the study” value [1, 10] was 18.5, the “Average number … of treatment” value [1, 11] was 6 and the “Investigator global improvement index (IGII)” value ([1]; Scalp, V0 (start of the study)) was 0. For the same molecule, the “Investigator global improvement index (IGII)” value ([1]; Scalp, V3 (after 90 days of treatment), 5% ibuprofen gel or 3% diclofenac gel) was 1, the “Average number … of the study” value [1, 12] was 6.3 and the “Average number of lesions (total)” value [1, 13] was 31.7. The “Average number of lesions (total)” value [1, 14] was 35.1, the “Severity of the lesions (BSI score)” value [1, 4] was “remained virtually unchanged” and the “Tolerability of the therapy” value ([1]; human, in vivo) was “well tolerated”. For the same molecule, the Undesirable side effects ([1]; human, in vivo) was “No undesirable side effects”, the “Therapeutic result in treating slight and moderate keratosis lesions (in words)” value ([2]; 10% ibuprofen gel or 3% diclofenac gel, 90 days) was “pronounced effectiveness” and the “Average number … of treatment” value [2, 15] was 0.7. For the same molecule, the “Investigator global improvement index (IGII)” value ([2]; Face, V0 (start of the study)) was 0, the “Investigator global improvement index (IGII)” value ([2]; Face, V3 (after 90 days of treatment), 10% ibuprofen gel or 3% diclofenac gel) was 3.7 and the “Average number … of the study” value [2, 16] was 5.2. The “Average number … of treatment” value [2, 17] was 0.3, the “Investigator global improvement index (IGII)” value [2, 24] was 0 and the “Investigator global improvement index (IGII)” value ([2]; Forehead, V3 (after 90 days of treatment), 10% ibuprofen gel or 3% diclofenac gel) was 3.8. For the same molecule, the “Average number … of the study” value [2, 18] was 3.3, the “Investigator global improvement index (IGII)” value ([2]; Hand, V0 (start of the study)) was 0 and the “Investigator global improvement index (IGII)” value ([2]; Hand, V3 (after 90 days of treatment), 10% ibuprofen gel or 3% diclofenac gel) was 3.6. The “Average number … of treatment” value [2, 19] was 2.7, the “Average number … of the study” value [2, 20] was 9.5 and the “Average IGII at the end of the treatment time” value [2, 21] was 3.7. For the same molecule, the “Total number of lesions” value [2, 22] was 18, the “Total number of lesions” value [2, 23] was 3.7 and the “Patients completely freed from the optically visible lesions” value ([2]; end of the 90 days of treatment, 10% ibuprofen gel, six patients in group) was “three”. The Tolerability ([2]; human, in vivo) was “very good”, the “Plasma level necessary for a general systemic effect” value ([3]; systemic effect) was ≥ 10 µg/mL and the “Plasma level reached in topical application” value ([3]; topical application) was “about 2 μg/ml”.
